# Test results from ChEMBL document CHEMBL5729359, “Tri-substituted heteroaryl derivatives as Src homology-2 phosphatase inhibitors” (2022).
# Molecular target: T1, Tyrosine-protein phosphatase non-receptor type 11 (Homo sapiens, UniProt Q06124)
# T1 sequence (Q06124 whole entry): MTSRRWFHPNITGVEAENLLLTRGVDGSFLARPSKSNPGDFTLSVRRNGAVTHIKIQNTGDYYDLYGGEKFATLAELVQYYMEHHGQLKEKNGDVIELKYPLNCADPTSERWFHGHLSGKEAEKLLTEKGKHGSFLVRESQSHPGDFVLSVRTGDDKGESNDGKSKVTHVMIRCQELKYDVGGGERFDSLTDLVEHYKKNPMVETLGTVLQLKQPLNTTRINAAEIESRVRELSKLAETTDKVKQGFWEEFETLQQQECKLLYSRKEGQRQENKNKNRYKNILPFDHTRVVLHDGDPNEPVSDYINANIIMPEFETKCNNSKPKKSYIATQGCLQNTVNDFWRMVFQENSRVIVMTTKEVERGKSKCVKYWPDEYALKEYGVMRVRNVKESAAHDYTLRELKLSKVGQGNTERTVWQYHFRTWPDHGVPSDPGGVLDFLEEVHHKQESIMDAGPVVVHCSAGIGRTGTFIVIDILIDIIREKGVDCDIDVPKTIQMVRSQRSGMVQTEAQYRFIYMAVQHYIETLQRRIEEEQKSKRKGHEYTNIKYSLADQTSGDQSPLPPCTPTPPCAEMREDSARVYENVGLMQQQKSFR
# Assay: At the basal state, SHP2 is auto-inhibited and access of substrates to the catalytic site is blocked by the […] interactions between the SH2 domains and the PTP domain. When bis-tyrosyl-phosphorylated peptides bind to SH2 domain of SHP2, the PTP domain becomes available for substrate recognition and reaction catalysis and SHP2 is allosterically activated. SHP2 catalytic activity can be measured using a fluorogenic artificial substrate DiFMUP.The phosphatase reactions were carried out at room temperature in 384-well black polystyrene plates (Greiner Bio-One, Cat #784076) using assay buffers containing 60 mM HEPES, pH 7.2, 75 mM NaCl, 75 mM KCl, 1 mM EDTA, 0.05% P-20, and 5 mM DTT.0.33 nM of […] was co-incubated with of 0.5 μM of bisphos-IRS 1 peptide (sequence: H2N-LN(pY)IDLDLV(dPEG8)LST(pY)ASINFQK-amide) and various concentrations of compounds for 30-60 min at room temperature. Then the reaction was initiated by addition of the surrogate substrate DiFMUP (Invitrogen, Cat #D6567, 100 uM final).The real-time conversion of DiFMUP to DiFMU (6,8-difluoro-7-hydroxyl-4-methyl-coumarin) was measured every 5 min for 30 min using a microplate reader (CLARIOstar, BMG Labtech) with excitation and emission wavelengths of 340 nm and 450 nm, respectively. Initial reaction rates were determined by linear fitting of the data and the inhibitor dose response curves were analyzed using normalized IC50 regression curve fitting with control based normalization.
row,Structure (SMILES),IC50 [nM]
1,C[C@@H]1OCC2(CCN(c3ncc(Sc4cc5[nH]c6c(c5nc4Cl)CCCC6O)nc3CO)CC2)[C@@H]1N (stereo partly specified),4.8
2,C[C@@H]1OCC2(CCN(c3ncc(Sc4ccnc(N)c4Cl)nc3CO)CC2)[C@@H]1N,0.9
3,C[C@@H]1OCC2(CCN(c3ncc(Sc4cccnc4C(F)(F)F)nc3[S+](C)[O-])CC2)[C@@H]1N (stereo partly specified),85
4,C[C@@H]1OCC2(CCN(c3ncc(Sc4ccnc(N)c4Cl)nc3Cl)CC2)[C@@H]1N,12
5,Nc1nccc(Sc2cnc(N3CCC4(CC3)Cc3ncccc3[C@H]4N)c(CO)n2)c1Cl,0.6
6,COC1CCc2[nH]c3cc(Sc4cnc(N5CCC6(CC5)CO[C@@H](C)[C@H]6N)c(CO)n4)c(Cl)nc3c2C1 (stereo partly specified),5.5
7,C[C@@H]1OCC2(CCN(c3ncc(Sc4ccnc(N)c4Cl)nc3[S+](C)[O-])CC2)[C@@H]1N (stereo partly specified),13
8,C[C@@H]1OCC2(CCN(c3ncc(Sc4ccnc(F)c4Cl)nc3[S+](C)[O-])CC2)[C@@H]1N (stereo partly specified),21
9,C[C@@H]1OCC2(CCN(c3ncc(Sc4ccnc(N)c4Cl)nc3O)CC2)[C@@H]1N,13
10,C[C@@H]1OCC2(CCN(c3ncc(Sc4cc5[nH]c6c(c5nc4Cl)CC(O)CC6)nc3CO)CC2)[C@@H]1N (stereo partly specified),3.5
11,COc1nccc(Sc2cnc(N3CCC4(CC3)CO[C@@H](C)[C@H]4N)c([S+](C)[O-])n2)c1Cl (stereo partly specified),18
12,C[C@@H]1OCC2(CCN(c3ncc(Sc4cc(N)nc(Cl)c4Cl)nc3[S+](C)[O-])CC2)[C@@H]1N (stereo partly specified),3
13,C[C@@H]1OCC2(CCN(c3ncc(Sc4ccnc(N5CCCC5)c4Cl)nc3[S+](C)[O-])CC2)[C@@H]1N (stereo partly specified),13
14,CN1C(=O)CCC12CC(N)C1(CCN(c3ncc(Sc4ccnc(N)c4Cl)nc3CO)CC1)C2 (stereo unspecified),269
15,C[C@@H]1OCC2(CCN(c3ncc(Sc4ccnc(Cl)c4Cl)nc3[S+](C)[O-])CC2)[C@@H]1N (stereo partly specified),6
16,Nc1nccc(Sc2cnc(N3CCC4(CC3)CCC3(CC3)C4N)c(CO)n2)c1Cl (stereo unspecified),3
